Results taken from patent US20090264289A1, “Use of Arylcarboxylic Acid Biphenylamides for Seed Treatment” (BASF SE, priority 2006, published 2009).

Experiments:
Assay type in all cases: in vivo
[1] = tested on: Puccinia recondita; experiment: Activity against Puccinia recondita on wheat (solution pipetted to seedlings in vermiculite); conditions: inoculated 7 days after treatment, 7 days incubation, control 80
Method: (§1) Activity Against Puccinia recondita on Wheat The active compounds were formulated as a stock solution in acetone at a concentration of 10 000 ppm. The stock solution was diluted with water to the stated active compound concentration. 1 ml of the respective solution was pipetted to wheat seedlings grown in vermiculite (10 to 12 seedlings per pot). 7 days after the treatment the wheat plants were inoculated with a spore suspension of Puccinia recondita. After 7 days of incubation, the extent of infection was determined visually in %. The concentration is given in g of active compound (g a.i.) per 100 kg of seeds.

[2] = tested on: Septoria tritici; experiment: Activity against Septoria tritici on wheat (seedlings treated, detached leaf portions on agar inoculated); conditions: wheat seedlings in vermiculite, leaf portions on agar inoculated 7 days after treatment, 18° C., 18 days incubation, control 100
Method: Activity Against Septoria tritici on Wheat The active compound Ia.1 was formulated as a stock solution in acetone at a concentration of 10 000 ppm. The stock solution was diluted with water to the stated active compound concentration. 1 ml of the respective solution was pipetted to wheat seedlings grown in vermiculite (10 to 12 seedlings per pot). 7 days after the treatment leaf portions of 5 cm length were placed in petri dishes filled with aqueous agar. The leaf portions were then inoculated with a spore suspension of Septoria tritici. The closed Petri dishes were incubated in a climatized test cabinet at 18° C. and 12 h light exposure per day. After 18 days of incubation, the extent of infection was determined visually in %. The concentration is given in g of active compound (g a.i.) per 100 kg of seeds.

[3] = tested on: Erysiphe graminis; experiment: Activity against Erysiphe graminis on wheat (solution pipetted to seedlings in vermiculite); conditions: inoculated 7 days after treatment, 7 days incubation, control 80
Method: as §1, with “Erysiphe graminis” for “Puccinia recondita”, “Erysiphe graminis.” for “Puccinia recondita.”

[4] = tested on: Phakopsora pachyrhizi; experiment: Activity against Phakopsora pachyrhizi on soybean (solution pipetted to seedlings in vermiculite); conditions: 250 g a.i./100 kg, inoculated 7 days after treatment, 14 days incubation, control 88
Method: Activity Against Phakopsora pachyrhizi on Soybean
The active compounds were formulated as a stock solution in dimethylsulfoxide at a concentration of 10 000 ppm. The stock solution was diluted with water to the stated active compound concentration. 1 ml of the respective solution was pipetted to soybean seedlings grown in vermiculite (1 seedling per pot). 7 days after the treatment the soybean plants were inoculated with a spore suspension of Phakopsora pachyrhizi. After 14 days of incubation, the extent of infection was determined visually in %. The concentration is given in g of active compound (g a.i.) per 100 kg of seeds.

[5] = tested on: Puccinia recondita; experiment: Activity against Puccinia recondita on wheat (seed treatment); conditions: 250 g a.i./100 kg seeds, inoculated 14 days after sowing, 7 days incubation, control 90
Method: Activity Against Puccinia recondita on Wheat (Seed Treatment) 24 mg of the active compounds listed in table 2 were in each case dissolved in 1 ml of acetone to give a stock solution. The stock solution was diluted with acetone to give the test solution. Aliquots of 4.8 g of wheat seeds were placed in glass vials, where they were treated in an air stream with 1 ml of the test solution containing the active compound. In each case, 10 grains were sown in pots of 8 cm diameter. Untreated grains served as control. […] After 7 days of incubation, the extent of infection was determined visually in %. The concentration is given in g of active compound (g a.i.) per 100 kg of seeds.

[6] = tested on: Septoria tritici; experiment: Activity against Septoria tritici on wheat (seed treatment); conditions: inoculated 14 days after sowing, 24 days incubation, control 85
Method: Activity Against Septoria tritici on Wheat (Seed Treatment) 9.6 mg of the active compound Ia.90 was dissolved in 1 ml of acetone to give a stock solution. The stock solution was diluted with acetone to give the test solution. Aliquots of 4.8 g of wheat seeds were placed in glass vials, where they were treated in an air stream with 0.5 ml of the test solution containing the active compound. In each case, 10 grains were sown in pots of 8 cm diameter. Untreated grains served as control. 14 days after sowing, the wheat plants were inoculated with a spore suspension of Septoria tritici. After 24 days of incubation, the extent of infection was determined visually in %. The concentration is given in g of active compound (g a.i.) per 100 kg of seeds.

[7] = tested on: Phakopsora pachyrhizi; experiment: Activity against Phakopsora pachyrhizi on soybean (seed treatment); conditions: inoculated 14 days after sowing, 10 days incubation, control 87
Method: Activity Against Phakopsora pachyrhizi on soybean (Seed Treatment)
16 mg of the active compounds listed in table 3 were in each case dissolved in 1 ml of acetone to give a stock solution. The stock solution was diluted with acetone to give the test solution. Aliquots of 1.5 g of soybean seeds were placed in glass vials, where they were treated in an air stream with 0.6 ml of the test solution containing the active compound. In each case, 8 grains were sown in pots of 8 cm diameter. Untreated grains served as control. 14 days after sowing, the soybean plants were inoculated with a spore suspension of Phakopsora pachyrhizi. After 10 days of incubation, the extent of infection was determined visually in %. The concentration is given in g of active compound (g a.i.) per 100 kg of seeds.

[8] = tested on: Septoria tritici; experiment: Activity against Septoria tritici on wheat (solution pipetted to seedlings in vermiculite); conditions: inoculated 7 days after treatment, 18 days incubation, control 60
Method: as §1, with “Against Septoria tritici” for “Against Puccinia recondita”, “active compound Ia.1 was” for “active compounds were”, “in dimethyl sulfoxide” for “in acetone”, “of Septoria tritici.” for “of Puccinia recondita.”, “After 18” for “After 7”

Structure (SMILES)	Infected leaf area ([1]; 125 g a.i./100 kg) [%]	Infected leaf area ([1]; 250 g a.i./100 kg) [%]	Infected leaf area ([2]; 125 g a.i./100 kg) [%]	Infected leaf area ([2]; 250 g a.i./100 kg) [%]	Infected leaf area ([3]; 125 g a.i./100 kg) [%]	Infected leaf area ([3]; 250 g a.i./100 kg) [%]	also measured
Cn1cc(C(=O)Nc2ccccc2-c2ccc(F)c(F)c2)c(C(F)F)n1 [Ia.45]	0	0	–	–	–	–	–
O=C(Nc1ccccc1-c1ccc(OC(F)(F)F)cc1)c1cccnc1Cl [Id.55]	0	0	–	–	–	–	–
Cn1cc(C(=O)Nc2ccc(F)cc2-c2ccc(Cl)c(Cl)c2)c(C(F)F)n1 [Ia.110]	–	–	3	7	0	0	Infected leaf area [4]: 17%
Cn1cc(C(=O)Nc2ccccc2-c2cc(F)cc(F)c2)c(C(F)F)n1 [Ia.244]	0	0	–	–	–	–	–
Cn1cc(C(=O)Nc2ccccc2-c2cc(Cl)cc(Cl)c2)c(C(F)F)n1 [Ia.43]	0	0	–	–	2	0	–
Cn1cc(C(=O)Nc2ccccc2-c2ccc(SC(F)(F)F)cc2)c(C(F)F)n1 [Ia.313]	0	0	0	0	0	0	–
Cn1cc(C(=O)Nc2ccccc2-c2cc(F)c(F)c(F)c2)c(C(F)(F)F)n1 [Ia.85]	0	0	0	0	0	0	Infected leaf area [5]: 11%
Cn1cc(C(=O)Nc2ccccc2-c2ccc(SC(F)(F)F)cc2)c(C(F)(F)F)n1 [Ia.173]	0	0	–	–	0	0	–
Cn1cc(C(=O)Nc2ccccc2-c2ccccc2Cl)c(C(F)F)n1 [Ia.233]	2	0	7	0	–	–	–
Cc1nn(C)c(Cl)c1C(=O)Nc1ccccc1-c1ccc(C(F)(F)F)cc1 [Ia.219]	8	6	–	–	–	–	–
Cn1cc(C(=O)Nc2ccccc2-c2cc(F)c(F)c(F)c2)c(C(F)F)n1 [Ia.90]	2	1	7	3	0	0	Infected leaf area ([6]; 25 g a.i./100 kg seeds): 1%; Infected leaf area ([6]; 50 g a.i./100 kg seeds): 0%; Infected leaf area ([6]; 100 g a.i./100 kg seeds): 0%; Infected leaf area [5]: 0%; Infected leaf area ([7]; 125 g a.i./100 kg seeds): 1%; Infected leaf area ([7]; 250 g a.i./100 kg seeds): 2%; Infected leaf area ([8]; 125 g a.i./100 kg): 0%; Infected leaf area ([8]; 250 g a.i./100 kg): 0%; Infected leaf area [4]: 0%
Cn1cc(C(=O)Nc2ccccc2-c2cc(F)c(F)c(F)c2)c(C(F)Cl)n1 (stereo not shown) [Ia.211]	0	0	–	–	0	0	Infected leaf area [4]: 3%
Cn1cc(C(=O)Nc2ccccc2-c2ccc(F)c(Cl)c2)c(C(F)F)n1 [Ia.44]	0	0	–	–	–	–	–
Cn1cc(C(=O)Nc2ccccc2-c2cccc(C(F)(F)F)c2)c(C(F)(F)F)n1 [Ia.64]	0	0	–	–	–	–	–
Cn1cc(C(=O)Nc2ccccc2-c2cccc(Cl)c2)c(CF)n1 [Ia.230]	0	0	–	–	–	–	–
O=C(Nc1ccccc1-c1ccc(OC(F)(F)C(F)F)cc1)c1cccnc1Cl [Id.56]	0	0	–	–	–	–	–
Cn1cc(C(=O)Nc2ccccc2-c2cc(F)cc(Cl)c2)c(C(F)(F)F)n1 [Ia.251]	0	0	–	–	–	–	–
Cn1cc(C(=O)Nc2ccccc2-c2cccc(Cl)c2)c(C(F)F)n1 [Ia.231]	0	0	–	–	–	–	–
Cn1cc(C(=O)Nc2c(F)cccc2-c2ccc(F)c(Cl)c2)c(C(F)F)n1 [Ia.249]	0	0	–	–	–	–	–
Cn1cc(C(=O)Nc2ccccc2-c2cc(Cl)ccc2Cl)c(C(F)(F)F)n1 [Ia.255]	0	0	3	3	0	0	Infected leaf area [5]: 38%
Cn1cc(C(=O)Nc2ccccc2-c2cc(F)cc(F)c2)c(C(F)(F)F)n1 [Ia.245]	0	0	0	0	0	0	Infected leaf area [5]: 19%; Infected leaf area [4]: 0%
Cc1cc(-c2ccccc2NC(=O)c2cn(C)nc2C(F)(F)F)c(F)cc1Cl [Ia.84]	0	0	3	3	0	0	–
O=C(Nc1ccccc1-c1ccc(SC(F)(F)F)cc1)c1cccnc1Cl [Id.58]	13	13	–	–	–	–	–
Cn1cc(C(=O)Nc2ccccc2-c2ccc(Cl)cc2F)c(C(F)(F)F)n1 [Ia.57]	0	0	–	–	–	–	–
Cn1cc(C(=O)Nc2ccccc2-c2cc(F)cc(Cl)c2)c(C(F)F)n1 [Ia.250]	0	0	–	–	–	–	–
O=C(Nc1ccccc1-c1ccc(Cl)cc1)c1cccnc1Cl [Id.1]	–	–	–	–	–	–	Infected leaf area [4]: 40%
